Measured values: patent US9115134B2, “6-triazolopyridazine sulfanyl benzothiazole derivatives as MET inhibitors” (SANOFI, priority 2007, dated 2015)

How the values were obtained:
[1] = system: HCT116 cells, MKN45 cells; test: Test C: Measurement of cell proliferation by 14C-thymidine pulse; assay type: cell-based; details: 14C-thymidine incorporation, 96 h of treatment; cell line not given
Procedure, shortened: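 HCT116 (2500/well, DMEM) and MKN45 (7500/well, RPMI), both with 10% FCS, treated after 4 h with 10 concentrations from 10 000 to 0.3 nM (3-fold, duplicate). ¹⁴C-thymidine (0.1 μCi/well) added at 72 h; incorporation read after 24 h pulse, 96 h total treatment.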

[2] = biological target: T1, MET (Homo sapiens, UniProt P08581); test: Test B: Inhibition of the autophosphorylation of MET; ELISA technique (pppY1230,1234,1235) in MKN45 cells; assay type: cell-based; design: Seed MKN45 cells into 96-well plates (Cell coat BD polylysine) at 20 000 cells/well; endogenous in cells; host or cells: MKN45 cells; details: 1 h treatment, PhosphoMET ELISA
Procedure, shortened: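 Adhered cells treated 1 h with six compound concentrations in duplicate, final 10 000 to 30 nM, against DMSO controls. Cells then lysed at 4° C for 30 min in Triton/SDS/deoxycholate buffer with phosphatase inhibitors. Phospho-MET measured by sandwich ELISA with anti-phospho MET antibody and HRP detection, absorbance at 450 nm.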
Target sequence in this assay (P08581 25-1390): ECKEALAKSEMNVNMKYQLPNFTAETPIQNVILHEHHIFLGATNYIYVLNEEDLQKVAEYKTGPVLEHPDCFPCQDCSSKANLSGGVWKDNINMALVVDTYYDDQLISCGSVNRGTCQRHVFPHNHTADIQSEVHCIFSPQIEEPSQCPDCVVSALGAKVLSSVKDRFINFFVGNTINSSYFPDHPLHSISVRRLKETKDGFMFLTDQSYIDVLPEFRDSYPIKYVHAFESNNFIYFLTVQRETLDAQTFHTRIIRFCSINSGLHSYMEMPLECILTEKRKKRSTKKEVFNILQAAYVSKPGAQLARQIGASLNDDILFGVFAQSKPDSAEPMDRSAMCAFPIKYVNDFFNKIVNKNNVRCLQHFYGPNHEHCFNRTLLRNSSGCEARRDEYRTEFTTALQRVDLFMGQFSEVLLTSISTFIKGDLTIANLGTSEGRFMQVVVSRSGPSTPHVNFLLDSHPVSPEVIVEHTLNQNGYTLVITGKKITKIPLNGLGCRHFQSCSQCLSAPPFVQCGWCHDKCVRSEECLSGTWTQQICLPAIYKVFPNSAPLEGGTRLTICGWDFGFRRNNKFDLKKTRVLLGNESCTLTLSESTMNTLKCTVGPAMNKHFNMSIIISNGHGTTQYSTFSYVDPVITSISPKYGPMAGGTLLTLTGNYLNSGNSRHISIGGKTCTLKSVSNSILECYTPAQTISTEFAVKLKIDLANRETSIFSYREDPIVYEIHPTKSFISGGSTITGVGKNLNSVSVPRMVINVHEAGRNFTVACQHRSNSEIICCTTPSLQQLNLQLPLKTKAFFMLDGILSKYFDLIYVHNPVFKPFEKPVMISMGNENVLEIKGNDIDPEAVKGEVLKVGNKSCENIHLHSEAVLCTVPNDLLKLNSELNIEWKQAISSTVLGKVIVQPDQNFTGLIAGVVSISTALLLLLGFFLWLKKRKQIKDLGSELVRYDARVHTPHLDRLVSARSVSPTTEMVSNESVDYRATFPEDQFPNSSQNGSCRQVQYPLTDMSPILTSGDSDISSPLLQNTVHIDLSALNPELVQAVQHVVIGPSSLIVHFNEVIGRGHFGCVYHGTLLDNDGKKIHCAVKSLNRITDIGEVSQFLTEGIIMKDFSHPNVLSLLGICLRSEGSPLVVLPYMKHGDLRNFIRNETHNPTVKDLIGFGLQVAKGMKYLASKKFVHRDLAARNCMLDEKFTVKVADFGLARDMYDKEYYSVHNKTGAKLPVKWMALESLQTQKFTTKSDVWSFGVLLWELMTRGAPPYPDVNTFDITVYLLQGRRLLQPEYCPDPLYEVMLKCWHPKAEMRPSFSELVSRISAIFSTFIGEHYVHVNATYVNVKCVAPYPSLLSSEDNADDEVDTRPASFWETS

[3] = biological target: T1, MET; test: Test A: HTRF MET assay in 96-well format; assay type: biochemical; design: The His-Tev-MET (956-1390) recombinant DNA in pFastBac (Invitrogen) is transfected into insect cells; His tag (N, cleaved yes); TEV cleavage site (N); made in house; host or cells: SF21 insect cells (baculovirus, pFastBac); details: MET 5 nM, 10 μM ATP
Procedure, shortened: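 Purified human MET cytoplasmic domain (956-1390, His tag cleaved), 5 nM, with compound (0.17 nM–10 μM, 3% DMSO) in MOPS pH 7.4; 1 μg/ml poly-(GAT), 10 μM ATP, 5 mM MgCl2, 10 min at ambient temperature. HTRF read-out (streptavidin-XL/anti-pTyr Eu cryptate, 2 h); % inhibition from 665/620 ratios.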
Target sequence in this assay (P08581 956-1390): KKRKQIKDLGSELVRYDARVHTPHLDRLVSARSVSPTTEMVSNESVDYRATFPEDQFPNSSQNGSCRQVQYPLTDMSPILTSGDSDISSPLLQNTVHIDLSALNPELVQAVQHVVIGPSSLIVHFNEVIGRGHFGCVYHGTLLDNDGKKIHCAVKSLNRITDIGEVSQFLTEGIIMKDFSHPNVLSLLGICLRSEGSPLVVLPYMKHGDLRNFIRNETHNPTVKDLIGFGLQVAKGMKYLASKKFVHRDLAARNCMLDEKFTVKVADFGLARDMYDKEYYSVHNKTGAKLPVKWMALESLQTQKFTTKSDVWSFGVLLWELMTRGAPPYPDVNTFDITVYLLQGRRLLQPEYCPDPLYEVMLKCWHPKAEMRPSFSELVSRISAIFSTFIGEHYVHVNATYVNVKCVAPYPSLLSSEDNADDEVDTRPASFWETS

| Compound | IC50 [1] [nM] | IC50 [2] [nM] | IC50 [3] [nM] |
| --- | --- | --- | --- |
| COCCNc1ccc2nnc(Sc3ccc4nc(NC(=O)C5CC5)sc4c3)n2n1 [Example 40, N-[6-({6-[(2-Methoxyethyl)amino][1,2,4]triazolo[4,3-b]pyridazin-3-yl}sulphanyl)-1,3-benzothiazol-2-yl]cyclopropanecarboxamide] | < 1000 | < 100 | < 100 |
| CC(=O)Nc1nc2ccc(Sc3nnc4ccc(-c5ccc(F)cc5)nn34)cc2s1 [Example 41, N-(6-{[6-(4-Fluorophenyl)[1,2,4]triazolo[4,3-b]pyridazin-3-yl]sulphanyl}-1,3-benzothiazol-2-yl)acetamide] | < 1000 | < 100 | < 100 |
| O=C(NCC[N+]1([O-])CCOCC1)Nc1nc2ccc(Sc3nnc4ccc(-c5ccc(F)cc5)nn34)cc2s1 [Example 42, 1-(6-{[6-(4-Fluorophenyl)[1,2,4]triazolo[4,3-b]pyridazin-3-yl]sulphanyl}-1,3-benzothiazol-2-yl)-3-[2-(4-oxidomorpholin-4-yl)ethyl]urea] | < 1000 | < 100 | < 100 |
| Cn1cc(-c2ccc3nnc(Sc4ccc5nc(N)sc5c4)n3n2)cn1 [Example 43, 6-{[6-(1-Methyl-1H-pyrazol-4-yl)[1,2,4]triazolo[4,3-b]pyridazin-3-yl]sulphanyl}-1,3-benzothiazol-2-amine] | < 1000 | < 100 | < 100 |
| O=C(NCCN1CCOCC1)Nc1nc2ccc(Sc3nnc4n3N=C(c3ccc(F)cc3)CC4)cc2s1 [Example 44, 1-(6-{[6-(4-Fluorophenyl)-7,8-dihydro-[1,2,4]triazolo[4,3-b]pyridazin-3-yl]sulphanyl}-1,3-benzothiazol-2-yl)-3-[2-(morpholin-4-yl)ethyl]urea] | < 1000 | < 100 | < 100 |
| CCOC(=O)Nc1nc2ccc(Sc3nnc4ccc(OC)nn34)cc2s1 [Example 45, Ethyl {6-[(6-methoxy[1,2,4]triazolo[4,3-b]pyridazin-3-yl)sulphanyl]-1,3-benzothiazol-2-yl}carbamate] | < 1000 | 100 to 500 | < 100 |
| COCCCOC(=O)Nc1nc2ccc(Sc3nnc4ccc(OC)nn34)cc2s1 [Example 46, 3-Methoxypropyl {6-[(6-methoxy[1,2,4]triazolo[4,3-b]pyridazin-3-yl)sulphanyl]-1,3-benzothiazol-2-yl}carbamate] | < 1000 | 100 to 500 | < 100 |
| COCCCOC(=O)Nc1nc2ccc(Sc3nnc4ccc(NCCOC)nn34)cc2s1 [Example 47, 3-Methoxypropyl[6-({6-[(2-methoxyethyl)amino][1,2,4]triazolo[4,3-b]pyridazin-3-yl}sulphanyl)-1,3-benzothiazol-2-yl]carbamate] | < 1000 | 100 to 500 | < 100 |
| COCCNc1ccc2nnc(Sc3ccc4nc(NC(=O)NCCN5CCCC5)sc4c3)n2n1 [Example 48, 1-[6-({6-[(2-Methoxyethyl)amino][1,2,4]triazolo[4,3-b]pyridazin-3-yl}sulphanyl)-1,3-benzothiazol-2-yl]-3-[2-(pyrrolidin-1-yl)ethyl]urea] | < 1000 | 100 to 500 | < 100 |
| COc1ccc2nnc(Sc3ccc4nc(NC(=O)NCCN5CCCC5)sc4c3)n2n1 [Example 49, 1-{6-[(6-Methoxy[1,2,4]triazolo[4,3-b]pyridazin-3-yl)sulphanyl]-1,3-benzothiazol-2-yl}-3-[2-(pyrrolidin-1-yl)ethyl]urea] | < 1000 | < 100 | < 100 |
| CC(C)(C)OC(=O)Nc1nc2ccc(Sc3nnc4ccc(OCC(O)CCCl)nn34)cc2s1 (stereo not drawn) [Example 51, 2-Methylpropan-2-yl(6-{[6-(4-chloro-2-hydroxybutoxy)[1,2,4]triazolo[4,3-b]pyridazin-3-yl]sulphanyl}-1,3-benzothiazol-2-yl)carbamate] | < 1000 | < 100 | < 100 |

The next lines start with the values.

| IC50 [1] [nM] | IC50 [2] [nM] | IC50 [3] [nM] | Compound |
| --- | --- | --- | --- |
| < 1000 | 100 to 500 | < 100 | CCOc1ccc2nnc(Sc3ccc4nc(N)sc4c3)n2n1 [Example 50, 6-[(6-Ethoxy[1,2,4]triazolo[4,3-b]pyridazin-3-yl)sulphanyl]-1,3-benzothiazol-2-amine] |
| < 1000 | < 100 | < 100 | CC(CO)(CCl)COc1ccc2nnc(Sc3ccc4nc(NC(=O)OC(C)(C)C)sc4c3)n2n1 (stereo not drawn) [Example 52, 2-Methylpropan-2-yl[6-({6-[3-chloro-2-(hydroxymethyl)-2-methylpropoxy]-[1,2,4]triazolo[4,3-b]pyridazin-3-yl}sulphanyl)-1,3-benzothiazol-2-yl]carbamate] |
| < 1000 | < 100 | < 100 | Nc1nc2ccc(Sc3nnc4ccc(-c5cccc(F)c5)nn34)cc2s1 [Example 53, 6-{[6-(3-Fluorophenyl)[1,2,4]triazolo[4,3-b]pyridazin-3-yl]sulphanyl}-1,3-benzothiazol-2-amine] |
| < 1000 | 100 to 500 | < 100 | Nc1nc2ccc(Sc3nnc4n3N=C(c3cccc(F)c3)CC4)cc2s1 [Example 54, 6-{[6-(3-Fluorophenyl)-7,8-dihydro[1,2,4]triazolo[4,3-b]pyridazin-3-yl]sulphanyl}-1,3-benzothiazol-2-amine] |
| < 1000 | 100 to 500 | < 100 | O=C(Nc1nc2ccc(Sc3nnc4ccc(-c5ccc(F)cc5)nn34)cc2s1)N1CCOCC1 [Example 55, N-(6-{[6-(4-Fluorophenyl)[1,2,4]triazolo[4,3-b]pyridazin-3-yl]sulphanyl}-1,3-benzothiazol-2-yl)morpholine-4-carboxamide] |
| < 1000 | 100 to 500 | < 100 | Nc1nc2ccc(Sc3nnc4ccc(-c5ccccc5F)nn34)cc2s1 [Example 56, 6-{[6-(2-Fluorophenyl)[1,2,4]triazolo[4,3-b]pyridazin-3-yl]sulphanyl}-1,3-benzothiazol-2-amine] |
| < 1000 | 100 to 500 | < 100 | CCC(C)CNc1nc2ccc(Sc3nnc4ccc(NCCOC)nn34)cc2s1 (stereo not drawn) [Example 57, N-(2-Methoxyethyl)-3-({2-[(2-methylbutyl)amino]-1,3-benzothiazol-6-yl}sulphanyl)[1,2,4]triazolo[4,3-b]pyridazin-6-amine] |
| < 1000 | < 100 | < 100 | CCOc1ccc2nnc(Sc3ccc4nc(NC(=O)CCOC)sc4c3)n2n1 [Example 58, N-{6-[(6-Ethoxy[1,2,4]triazolo[4,3-b]pyridazin-3-yl)sulphanyl]-1,3-benzothiazol-2-yl}-3-methoxypropanamide] |
| < 1000 | < 100 | < 100 | CCOc1ccc2nnc(Sc3ccc4nc(NC(=O)NC5CC5)sc4c3)n2n1 [Example 59, 1-cyclopropyl-3-{6-[(6-ethoxy[1,2,4]triazolo[4,3-b]pyridazin-3-yl)sulphanyl]-1,3-benzothiazol-2-yl}urea] |
| < 1000 | < 100 | < 100 | O=C(Nc1nc2ccc(Sc3nnc4ccc(-c5ccc(F)cc5)nn34)cc2s1)C1CC1 [Example 60, N-(6-{[6-(4-Fluorophenyl)[1,2,4]triazolo[4,3-b]pyridazin-3-yl]sulphanyl}-1,3-benzothiazol-2-yl)cyclopropanecarboxamide] |
| < 1000 | < 100 | < 100 | O=C(Nc1nc2ccc(Sc3nnc4n3N=C(c3ccc(F)cc3)CC4)cc2s1)C1CC1 [Example 61, N-(6-{[6-(4-Fluorophenyl)-7,8-dihydro[1,2,4]triazolo[4,3-b]pyridazin-3-yl]sulphanyl}-1,3-benzothiazol-2-yl)cyclopropanecarboxamide] |
| < 1000 | < 100 | < 100 | Nc1nc2ccc(Sc3nnc4ccc(NC5CCCCC5)nn34)cc2s1 [Example 62, 3-[(2-Amino-1,3-benzothiazol-6-yl)sulphanyl]-N-cyclohexyl[1,2,4]triazolo[4,3-b]pyridazin-6-amine] |
| < 1000 | 100 to 500 | < 100 | Nc1nc2ccc(Sc3nnc4ccc(OC5CCCCC5)nn34)cc2s1 [Example 63, 6-{[6-(Cyclohexyloxy)[1,2,4]triazolo[4,3-b]pyridazin-3-yl]sulphanyl}-1,3-benzothiazol-2-amine] |
| < 1000 | < 100 | < 100 | O=C(NCCN1CCOCC1)Nc1nc2ccc(Sc3nnc4ccc(-c5cccc(F)c5)nn34)cc2s1 [Example 64, 1-(6-{[6-(3-Fluorophenyl)[1,2,4]triazolo[4,3-b]pyridazin-3-yl]sulphanyl}-1,3-benzothiazol-2-yl)-3-[2-(morpholin-4-yl)ethyl]urea] |
